Results: patent publication US11384358B2, “Method of regulating gene expression in a cell” (President and Fellows of Harvard College, priority 2017, dated 2022)

Tests used:
Assay type in all cases: cell-based
[1] = system: aTc-inducible expression cassette encoding J3-VHH secretion; assay: aTc-induced secretion of HisTagged J3-VHH nanobody, protein gel of purified culture supernatant; settings: L. gasseri with inducible cassette (SEQ ID NO: 2); 500 ng/mL aTc added at optical density 0.4; FIG. 17
From the text: According to one aspect, an inducible expression system is used prevent expression during bacterial culture and clone isolation. According to one aspect, expression is controlled and kept off during bacterial culture and clone isolation to avoid or lower or reduce or inhibit secretion-induced toxicity. According to one aspect, the level of a HisTagged, anti-HIV (gp120) camelid nanobody (J3-VHH) purified from culture supernatant, when secretion of protein was driven by an inducible system (SEQ ID NO: 2) was compared to a system using an uncontrolled, constitutive slpA. Cells (in this case, L. gasseri) without an expression cassette (negative control with no protein expected), an aTc-inducible expression cassette encoding J3-VHH secretion, and an equivalent, but constitutive expression cassette, were grown in culture to an optical density of 0.4 (the start of the exponential growth phase, during which time cellular protein production capacity is maximal), and split into two equal volumes—500 ng/mL of aTc was added to one, while the other received no aTc (as an internal negative control to verify functional induction).

[2] = system: TetR regulon paired with slpA-tetO variant 2; assay: aTc induction of fluorescent reporter, TetR regulon (L. plantarum promoter) paired with slpA-tetO variant 2; settings: L. rhamnosus GG; 0.3125-10 ng/mL aTc; early exponential, mid-exponential and stationary phase; FIG. 1
Description: To evaluate the functionality of the aTc induction system described herein in lactic acid bacteria, the TetR regulon described herein is driven by a L. plantarum promoter paired with slpA-tetO variant 2 (current SEQ IDs 1 and 2), into L. rhamnosus GG via electroporation with a high copy plasmid. Sequence verified colonies, as well as colonies harboring a negative control plasmid with no fluorescence reporter, were then picked in triplicate, and used to inoculate liquid cultures that were grown overnight. These overnight cultures were then sub-cultured 1/100 into fresh media, in duplicate—one culture containing 10 ng/mL aTc, the other containing no inducing agent. The culture with inducing agent, was then serially diluted by 50%, 5 times (yielding cultures with 5, 2.5, 1.25, 0.625, and 0.3125 ng/mL of aTc, in addition to the original 10 ng/mL culture). These cultures were then grown to an optical density of 0.2 (to capture lag phase behavior), 0.6 (log phase), and 1.0 (stationary phase), as measured by an optical cell density meter. At each optical density, the fluorescence of all cultures and replicates were measured in absolute units in a fluorimeter. Relative fluorescence units were then computed as a fold change value over the measured fluorescence of the negative control cell cultures that were known to not express fluorescence protein.

[3] = system: L. crispatus; assay: susceptibility of Lactobacillus strains to tetracycline (growth inhibition)
[4] = system: L. gasseri; assay: as above
[5] = system: L. jensenii; assay: as above
Description: (§1) An expression system that is inducible by tetracycline in Lactobacilli is described as follows. […] A BLAST analysis of the TetR protein sequence as well as the TetA tetracycline efflux pump that drives resistance was performed, across all available Lactobacillus proteomes and potential homologs in L. lactis, and L. plantarum were identified, because they carry a transferrable plasmid harboring tetM and tetS genes.

[6] = system: L. rhamnosus GG; assay: as above
Description: as §1

[7] = system: L. rhamnosus GG; assay: promoter variants driving fluorescent reporter in plasmid with no TetR, L. rhamnosus GG
Description: FIG. 11 depicts minimum free energy mRNA structural folding predictions. Each of these variants was then tested in a plasmid with no TetR (meaning the inserted promoters are not repressed, and should be constitutively active), driving a fluorescent reporter. […] Subsequently, this test was replicated in L. rhamnosus GG. […] Therefore, only variant 2 was selected for testing in the presence of TetR. […] See McCracken et al. J Bacteriol 181(20):6569-6572 (1999).

[8] = relative expression strength of promoters by fluorescence (FIG. 12)
[9] = system: L. rhamnosus GG; assay: leakage and induction of aTc-inducible slpA promoter variant (FIG. 16)
From the text: An exemplary aTc-inducible slpA promoter variant is provided in SEQ ID NO:15 which includes the alterations above resulting in a combined, maximally repressive variant. In one embodiment, a promoter sequence has at least 85% homology, at least 90% homology, at least 95% homology, at least 97% homology, at least 98% homology or at least 99% homology to SEQ ID NO:15. All of the described alterations work in concert to achieve an inducible system that has essentially undetectable levels of leakage in all phases of growth.

[10] = system: TetR regulon paired with slpA-tetO variant 2; assay: aTc induction of fluorescent reporter in L. gasseri; settings: similar experimental conditions, FIG. 15

Cc1c2c(c(O)c3c(O)cccc13)C(=O)[C@]1(O)C(O)=C(C(N)=O)C(=O)[C@@H](N(C)C)[C@@H]1C2 [aTc, anhydrous tetracycline]
secretion of J3-VHH protein into the supernatant [1]: secreted any protein into the supernatant | repression and expression of a fluorescent protein in the absence and presence of aTc [2]: reliable repression and expression of a fluorescent protein

CN(C)[C@@H]1C(O)=C(C(N)=O)C(=O)[C@@]2(O)C(O)=C3C(=O)c4c(O)cccc4[C@@](C)(O)[C@H]3C[C@@H]12 [tetracycline]
tetracycline concentration at which growth is inhibited [3]: ≤ 2 mg/mL | tetracycline concentration at which growth is inhibited [4]: ≤ 2 mg/mL | tetracycline concentration at which growth is inhibited [5]: ≤ 2 mg/mL | tetracycline concentration at which growth is inhibited [6]: ≤ 2 mg/mL

B1: Variant 2: slpA promoter with two tetO boxes after the transcriptional start site (nucleic acid)
DNA: TGCTTGTGGGGGTAAGCGGTAGGTGAAATATTACAAATAGTATTTTTCGGTCATTTTAACTTGCTATTTCTTGAAGAGGTTAGTACAATATGAATCGTGGCCCTATCAGTGATAGAGATCAGGCGCCCTATCAGTGATAGAGATGATTCTTCAGCAAGACTACTACCTCATGAGAGTTATAGACTCATGGATCTTGCTTTGAAGGGTTTTGTACATTATAGGCTCCTATCACATGCTGAACCTATGGCCTATTACATTTTTTTATATTTCAAGGAGGAAAAGACCAC
expression versus wild-type promoter [7]: 3 fold-less than the wild-type promoter

B2: promoter for the ribosomal RNA 3-a from L. plantarum: L. plantarum ribosomal RNA promoter 3-a, used to drive TetR (SEQ ID NO: 1) (nucleic acid)
DNA: TTATAAAAAGATGTTGACAGCTTGTTCTGATGATGATAAACTTTAATAGTTGCGAGAGAAAGAGGAGAAATACTAGATGATGTCTAGATTAGATAAAAGTAAAGTGATTAACAGCGCATTAGAGCTGCTTAATGAGGTCGGAATCGAAGGTTTAACAACCCGTAAACTCGCCCAGAAGCTAGGTGTAGAGCAGCCTACATTGTATTGGCATGTAAAAAATAAGCGGGCTTTGCTCGACGCCTTAGCCATTGAGATGTTAGATAGGCACCATACTCACTTTTGCCCTTTAGAAGGGGAAAGCTGGCAAGATTTTTTACGTAATAACGCTAAAAGTTTTAGATGTGCTTTACTAAGTCATCGCGATGGAGCAAAAGTACATTTAGGTACACGGCCTACAGAAAAACAGTATGAAACTCTCGAAAATCAATTAGCCTTTTTATGCCAACAAGGTTTTTCACTAGAGAATGCATTATATGCACTCAGCGCTGTGGGGCATTTTACTTTAGGTTGCGTATTGGAAGATCAAGAGCATCAAGTCGCTAAAGAAGAAAGGGAAACACCTACTACTGATAGTATGCCGCCATTATTACGACAAGCTATCGAATTATTTGATCACCAAGGTGCAGAGCCAGCCTTCTTATTCGGCCTTGAATTGATCATATGCGGATTAGAAAAACAACTTAAATGTGAAAGTGGGTCTTAA
expression strength relative to slpA [8]: 5 fold weaker than that of slpA

B3: SEQ ID NO:15: aTc-inducible slpA promoter variant combining all alterations, maximally repressive (nucleic acid)
DNA: TGCTTGTGGGGGTAAGCGGTAGGTGAAATATTACAAATAGTATTTTTCGGTCATTTTAACTTGCTATTTCTTGAAGAGGTTAGTACAATATGAATCGTGGTCCCTATCAGTGATAGAGATTGACATCCCTATCAGTGATAGAGATATTCTTCAGCAAGACTACTACCTCATGAGAGTTATAGACTCATGGATCTTGCTTTGAAGGGTTTTGTACATTATAGGCTCCTATCACATGCTGAACCTATGGCCTATTACATTTTTTTATATTTCAAGGAGGAAAAGACCAC
reduction in maximum inducible expression ([9]; FIG. 16): ~10 × | basal expression in the absence of aTc ([9]; stationary phase for 0, 2.5, 7.5 and 17.5 hours): no basal expression was detected

B4: TetR-ClpC-slpA: hybrid regulon: L. fermentum BR11 ClpC promoter fused to slpA 5' untranslated region driving TetR (nucleic acid)
DNA: CTTAAAATATAGTCATAGAATTAGGGCGTCGGTTTTAAAAGTGTGGTAAAATAATGGTCAAGATTAGTGGTAAGTAATAGGACGTGCTTCAGGCGTGTTGCCTGTACGCATGCTGATTCTTCAGCAAGACTACTACCTCATGAGAGTTATAGACTCATGGTATAGGCTCCTATCACATGCTGAACCTATGGCCTATTACATTTTTTTATATTTCAAGGAGGAAAAGACCACATGATGTCACGCTTGGATAAATCAAAAGTTATTAATTCAGCATTGGAATTGTTGAATGAAGTTGGCATTGAAGGCTTGACCACCCGCAAATTGGCACAAAAATTGGGCGTTGAACAACCAACCTTGTATTGGCATGTTAAAAATAAACGCGCATTGTTGGATGCATTGGCAATTGAAATGTTGGATCGCCATCATACCCATTTTTGCCCATTGGAAGGCGAATCATGGCAAGATTTTTTGCGCAATAATGCAAAATCATTTCGCTGCGCATTGTTGTCACATCGCGATGGCGCAAAAGTTCATTTGGGCACCCGCCCAACCGAAAAACAATATGAAACCTTGGAAAATCAATTGGCATTTTTGTGCCAACAAGGCTTTTCATTGGAAAATGCATTGTATGCATTGTCAGCAGTTGGCCATTTTACCTTGGGCTGCGTTTTGGAAGATCAAGAACATCAAGTTGCAAAAGAAGAACGCGAAACCCCAACCACCGATTCAATGCCACCATTGTTGCGCCAAGCAATTGAATTGTTTGATCATCAAGGCGCAGAACCAGCATTTTTGTTTGGCTTGGAATTGATTATTTGCGGCTTGGAAAAACAATTGAAATGCGAATCAGGCTCATAA
function of hybrid promoter driving TetR [10]: functional
